Laboratory results as given in patent US9212168B2 (priority 2011, dated 2015).
pEC50: −log10 of the molar value.

Experiments:
HCV genotype 1b replicon = HCV genotype 1b replicon assay (Renilla luciferase readout); assay type: cell-based, hepatitis C virus; conditions: for Genotype 1b: HCV genotype 1b replicon
From the text: Assay 1: HCV Genotype 1b Replicon Assay
The HCV genotype 1b replicon cell line was obtained from Apath LLC (Brooklyn, N.Y.) (APC144; Huh7 cell background). This subgenomic replicon contains the N-terminus of the HCV core protein fused to the neomycin-resistance selectable marker. The EMCV IRES lies downstream and drives expression of humanized Renilla luciferase fused to the non-structural proteins NS3-NS5B. This cell line was used to determine compound potency using the luciferase activity readout as a measurement of compound inhibition of replicon levels.
Cells were grown at 37° C. in a 5% CO2 humidified incubator in DMEM (Invitrogen) with 10% FBS (HyClone), 1×NEAA (Invitrogen), 1× Pen-Strep (Invitrogen), and 500 μg/mL G418 (Invitrogen). On day 1 of the assay, cells were plated at 10,000 cells/well in white 96-well tissue culture plates (Costar) in 200 μL media lacking G418. Four hours later, once the cells have adhered, the media was removed and replaced with media (no G418) containing dose-responses of test compounds. Compounds were initially diluted in DMSO and then diluted another 200× in media to bring the final DMSO concentration down to 0.5%. The cells were incubated with test compounds for 48 hours. At the end of the incubation period, media and compound were removed from the plates and the luciferase activity was determined using Promega Renilla-Glo reagents.
To analyze the data, the luciferase activity was plotted vs. the compound concentration, and EC50 values were determined from a 4-parameter robust fit model with the GraphPad Prism software package (GraphPad Software, Inc., San Diego, Calif.). Results are expressed as the negative decadic logarithm of the EC50 value, pEC50.
Test compounds having a higher pEC50 value in this assay show greater inhibition of HCV genotype 1b replication.

HCV genotype 1a replicon = HCV genotype 1a replicon assay (NS3 protease activity readout); assay type: cell-based, hepatitis C virus; conditions: for Genotype 1a: HCV genotype 1a replicon
Procedure, shortened: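 Genotype 1a subgenomic replicon cells (APC89, Huh7.5) were treated with compound dose-responses in G418-free medium, 0.5% DMSO final, for 48 or 72 hours at 37° C. Lysate NS3/4a protease activity measured with 15 μM FRET substrate, 20 min at 37° C (ex 340/em 509 nm); EC50 by 4-parameter fit.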

SMILES | Genotype 1b (HCV genotype 1b replicon) | Genotype 1a (HCV genotype 1a replicon) | pEC50 (HCV genotype 1b replicon; Hepatitis C virus, read-out: Genotype 1b) | pEC50 (HCV genotype 1a replicon; Hepatitis C virus, read-out: Genotype 1a, HCV genotype 1a replicon)
COC(=O)N[C@H](C(=O)N1C[C@@H](C)C[C@H]1c1nc(-c2ccc(-c3ccc(NC(=O)c4ccc(N5CCN(C(=O)[C@H]6CC6(C)C)C[C@H]5C)nc4)cc3C(F)(F)F)cc2)c[nH]1)C(C)C [Example 1-62] | D (D represents pEC50>10 (EC50<0.1 nM)) | D (D represents pEC50>10 (EC50<0.1 nM)) | – | –
COC(=O)N[C@H](C(=O)N1C[C@@H](C)C[C@H]1c1nc(-c2ccc(-c3ccc(NC(=O)c4ccc(N5CCN(C(=O)C(C)(C)C)C[C@H]5C)nc4)cc3OC(F)(F)F)cc2)c[nH]1)C(C)C [Example 1-75] | D (D represents pEC50>10 (EC50<0.1 nM)) | D (D represents pEC50>10 (EC50<0.1 nM)) | – | –
COC(=O)N[C@H](C(=O)N1C[C@@H](C)C[C@H]1c1nc(-c2ccc(-c3cc(F)c(NC(=O)c4ccc(N5CCN(C(=O)[C@H]6CC6(C)C)C[C@H]5C)nc4)cc3F)cc2)c[nH]1)C(C)C [Example 1-81] | D (D represents pEC50>10 (EC50<0.1 nM)) | D (D represents pEC50>10 (EC50<0.1 nM)) | – | –
COC(=O)N[C@H](C(=O)N1C[C@@H](C)C[C@H]1c1nc(-c2ccc(-c3cc(F)c(NC(=O)c4ccc(N5CCN(C(=O)C(C)(C)C)C[C@H]5C)nc4)cc3F)cc2)c[nH]1)C(C)C [Example 1-82] | D (D represents pEC50>10 (EC50<0.1 nM)) | C (C represents pEC50 between and 9 and about 10, (EC50 between 1 nM and 0.1 nM)) | – | –
[2H]C([2H])([2H])C1(C([2H])([2H])[2H])CC1C(=O)N1CCN(c2ccc(C(=O)Nc3cc(OC(F)(F)F)c(-c4ccc(-c5c[nH]c([C@@H]6C[C@H](C)CN6C(=O)[C@@H](NC(=O)OC)C(C)C)n5)cc4)cc3F)cn2)[C@H](C)C1 (stereo partly shown) [Example 1-92] | D (D represents pEC50>10 (EC50<0.1 nM)) | D (D represents pEC50>10 (EC50<0.1 nM)) | – | –
COC(=O)N[C@H](C(=O)N1C[C@@H](C)C[C@H]1c1nc(-c2ccc(-c3cc(Cl)c(NC(=O)c4ccc(N5CCN(C(=O)C(C)(C)F)C[C@H]5C)nc4)cc3OC(F)(F)F)cc2)c[nH]1)C(C)C [Example 1-96] | D (D represents pEC50>10 (EC50<0.1 nM)) | D (D represents pEC50>10 (EC50<0.1 nM)) | – | –
COC(=O)N[C@H](C(=O)N1C[C@@H](C)C[C@H]1c1nc(-c2ccc(-c3cc(F)c(NC(=O)c4ccc(N5CCN(C(=O)C(C)(C)CO)C[C@H]5C)nc4)cc3OC(F)(F)F)cc2)c[nH]1)C(C)C [Example 1-101] | D (D represents pEC50>10 (EC50<0.1 nM)) | D (D represents pEC50>10 (EC50<0.1 nM)) | – | –
COC(=O)N[C@H](C(=O)N1C[C@@H](N(C)C)C[C@H]1c1nc(-c2ccc(-c3ccc(NC(=O)c4ccc(N5CCN(C(=O)c6c[nH]cn6)C[C@H]5C)nc4)cc3)cc2)c[nH]1)C(C)C [Example 2-1] | D (D represents pEC50>10 (EC50<0.1 nM)) | C (C represents pEC50 between and 9 and about 10, (EC50 between 1 nM and 0.1 nM)) | – | –
COC(=O)N[C@H](C(=O)N1C[C@@H](N(C)C)C[C@H]1c1nc(-c2ccc(-c3ccc(NC(=O)c4ccc(N5CCN(C(=O)[C@]6(C)CCCN6C(C)=O)C[C@H]5C)nc4)cc3)cc2)c[nH]1)C(C)C [Example 2-2] | C (C represents pEC50 between and 9 and about 10, (EC50 between 1 nM and 0.1 nM)) | C (C represents pEC50 between and 9 and about 10, (EC50 between 1 nM and 0.1 nM)) | – | –
COC(=O)N[C@H](C(=O)N1C[C@@H](N(C)C)C[C@H]1c1nc(-c2ccc(-c3ccc(NC(=O)c4ccc(N5CCN(C(=O)[C@H]6CC6(C)C)C[C@H]5C)nc4)cc3)cc2)c[nH]1)C(C)C [Example 2-3] | D (D represents pEC50>10 (EC50<0.1 nM)) | D (D represents pEC50>10 (EC50<0.1 nM)) | – | –
CNC(=O)N1CCN(c2ccc(C(=O)Nc3ccc(-c4ccc(-c5c[nH]c([C@@H]6C[C@H](N(C)C)CN6C(=O)[C@@H](NC(=O)OC)C(C)C)n5)cc4)c(C)c3)cn2)[C@H](C)C1 [Example 2-5] | D (D represents pEC50>10 (EC50<0.1 nM)) | C (C represents pEC50 between and 9 and about 10, (EC50 between 1 nM and 0.1 nM)) | – | –
COC(=O)N[C@H](C(=O)N1C[C@@H](C)C[C@H]1c1nc(-c2ccc(-c3cc(Cl)c(NC(=O)c4ccc(N5C[C@H](C)N(C(=O)c6c[nH]cn6)C[C@H]5C)nc4)cc3C(F)(F)F)cc2)c[nH]1)C(C)C [Example 3, [(S)-1-((2S,4S)-2-{4-[5′-Chloro-4′-({6-[(2R,5S)-4-(1H-imidazole-4-carbonyl)-2,5-dimethyl-piperazin-1-yl]-pyridine-3-carbonyl}-amino)-2′-trifluoromethyl-biphenyl-4-yl]-1H-imidazol-2-yl}-4-methyl-pyrrolidine-1-carbonyl)-2-methyl-propyl]-carbamic acid methyl ester] | – | – | > 10.00 | > 10.00
COC(=O)N[C@H](C(=O)N1C[C@@H](C)C[C@H]1c1nc(-c2ccc(-c3ccc(C(=O)Nc4ccc(N5CCN(C(=O)[C@H]6CC6(C)C)C[C@H]5C)nc4)cc3)cc2)c[nH]1)C(C)C [Example 4-1] | D (D represents pEC50>10 (EC50<0.1 nM)) | D (D represents pEC50>10 (EC50<0.1 nM)) | – | –
COC(=O)N[C@H](C(=O)N1C[C@@H](C)C[C@H]1c1nc(-c2ccc(-c3ccc(C(=O)Nc4ccc(N5CCN(C(=O)[C@]6(C)CCCN6C(=O)[C@@H](NC(=O)OC)C(C)C)C[C@H]5C)nc4)cc3)cc2)c[nH]1)C(C)C [Example 4-2] | D (D represents pEC50>10 (EC50<0.1 nM)) | D (D represents pEC50>10 (EC50<0.1 nM)) | – | –
COCC(=O)N1CCC[C@@]1(C)C(=O)N1CCN(c2ccc(NC(=O)c3ccc(-c4ccc(-c5c[nH]c([C@@H]6C[C@H](C)CN6C(=O)[C@@H](NC(=O)OC)C(C)C)n5)cc4)c(OC(F)(F)F)c3)cn2)[C@H](C)C1 [Example 4-4] | D (D represents pEC50>10 (EC50<0.1 nM)) | D (D represents pEC50>10 (EC50<0.1 nM)) | – | –
COC(=O)N[C@H](C(=O)N1C[C@@H](C)C[C@H]1c1nc(-c2ccc(-c3ccc(C(=O)Nc4ccc(N5CCN(C(=O)[C@]6(C)CCCN6C(=O)OC(C)C)C[C@H]5C)nc4)cc3OC(F)(F)F)cc2)c[nH]1)C(C)C [Example 4-5] | D (D represents pEC50>10 (EC50<0.1 nM)) | D (D represents pEC50>10 (EC50<0.1 nM)) | – | –
CNC(=O)N1CCC[C@@]1(C)C(=O)N1CCN(c2ccc(NC(=O)c3ccc(-c4ccc(-c5c[nH]c([C@@H]6C[C@H](C)CN6C(=O)[C@@H](NC(=O)OC)C(C)C)n5)cc4)c(OC(F)(F)F)c3)cn2)[C@H](C)C1 [Example 4-6] | D (D represents pEC50>10 (EC50<0.1 nM)) | D (D represents pEC50>10 (EC50<0.1 nM)) | – | –
COC(=O)N[C@H](C(=O)N1C[C@@H](C)C[C@H]1c1nc(-c2ccc(-c3ccc(C(=O)Nc4ccc(N5CCN(C(=O)[C@]6(C)CCCN6C(=O)[C@H](NC(=O)OC)C(C)C)C[C@H]5C)nc4)cc3OC(F)(F)F)cc2)c[nH]1)C(C)C [Example 4-7] | D (D represents pEC50>10 (EC50<0.1 nM)) | D (D represents pEC50>10 (EC50<0.1 nM)) | – | –
COCC(=O)N1CCC[C@@]1(C)C(=O)N1C[C@@H](C)N(c2ccc(NC(=O)c3ccc(-c4ccc(-c5c[nH]c([C@@H]6C[C@H](C)CN6C(=O)[C@@H](NC(=O)OC)C(C)C)n5)cc4)c(OC(F)(F)F)c3)cn2)C[C@@H]1C [Example 4-8] | D (D represents pEC50>10 (EC50<0.1 nM)) | D (D represents pEC50>10 (EC50<0.1 nM)) | – | –
COC(=O)N[C@H](C(=O)N1C[C@@H](C)C[C@H]1c1nc(-c2ccc(-c3ccc(C(=O)Nc4ccc(N5C[C@H](C)N(C(=O)[C@H]6CC6(C)C)C[C@H]5C)nc4)cc3OC(F)(F)F)cc2)c(Cl)[nH]1)C(C)C [Example 4-10] | D (D represents pEC50>10 (EC50<0.1 nM)) | D (D represents pEC50>10 (EC50<0.1 nM)) | – | –
COC(=O)N[C@H](C(=O)N1C[C@@H](C)C[C@H]1c1nc(-c2ccc(-c3ccc(C(=O)Nc4ccc(N5C[C@H](C)N(C(=O)C6CC6)C[C@H]5C)nc4)cc3OC(F)(F)F)cc2)c(Cl)[nH]1)C(C)C [Example 4-11] | D (D represents pEC50>10 (EC50<0.1 nM)) | D (D represents pEC50>10 (EC50<0.1 nM)) | – | –
CNC(=O)N1C[C@@H](C)N(c2ccc(NC(=O)c3ccc(-c4ccc(-c5nc([C@@H]6C[C@H](C)CN6C(=O)[C@@H](NC(=O)OC)C(C)C)[nH]c5Cl)cc4)c(OC(F)(F)F)c3)cn2)C[C@@H]1C [Example 4-12] | D (D represents pEC50>10 (EC50<0.1 nM)) | D (D represents pEC50>10 (EC50<0.1 nM)) | – | –
CNC(=O)N1C[C@@H](C)N(c2ccc(NC(=O)c3ccc(-c4ccc(-c5c[nH]c([C@@H]6C[C@H](C)CN6C(=O)[C@@H](NC(=O)OC)C(C)C)n5)cc4)c(OC(F)(F)F)c3)cn2)C[C@@H]1C [Example 4-14] | D (D represents pEC50>10 (EC50<0.1 nM)) | C (C represents pEC50 between and 9 and about 10, (EC50 between 1 nM and 0.1 nM)) | – | –
